Laboratory results reported in publication PMC9820279 (International Journal of Molecular Sciences, 2022).
Like-named read-outs stand apart in the source and are kept apart here.

System: HBMEC monolayer
[1] = matrix ASFE extract 24 µg/mL, 2 h incubation, n.d = not detected in lower compartment
[2] = matrix ASFE extract 24 µg/mL, 4 h incubation, n.d = not detected in lower compartment

`CCC(O)C1CC(C)C2(CC(=O)C3(C)C4=C(CCC32C)C2(C)CCC(=O)C(C)(CO)C2CC4)O1` [Triterpene, (23S,24S)-17,23-Epoxy-24,29-dihydroxy-27-norlanost-8-ene-3,15-dione] was tested, and the “Te % (SEM) 2 h” value [1] was 30.4 (1.7) % and the “Te % (SEM) 4 h” value [2] was 82.9 (5.3) %.

For `CC1=CCCC2(C)CCC3C(C)(C)CC132` (stereo not drawn) [(−)-α-Panasinsen], the “Te % (SEM) 2 h” value was 19.8 (0.2) %.

For `CC(C)[C@H](C)CC[C@@H](C)[C@H]1CC[C@H]2[C@@H]3CC=C4C[C@@H](O)CC[C@]4(C)[C@H]3CC[C@]12C` [Campesterol], the “Te % (SEM) 2 h” value (human) was 68.7 (2.2) %.

With `O=C(O)C=Cc1ccc(O)cc1` [p-Coumaric acid] the “Te % (SEM) 2 h” value (human) was 9.1 (0.6) % and the “Te % (SEM) 4 h” value (human) was 37.8 (2.5) %.

`O=C(/C=C/c1ccc(O)c(O)c1)OC1[C@H](O)CC(O)(C(=O)O)C[C@H]1O` (stereo partly drawn) [Caffeoylquinic acid] was tested, and the “Te % (SEM) 2 h” value was 15.7 (0.4) % and the “Te % (SEM) 4 h” value was 74.8 (2.9) %.

For `CC1(C)C2CCC1(C)C(O)C2` (stereo not drawn) [Borneol], the “Te % (SEM) 2 h” value (human, 2 h, 40 µg/mL) was 8.5 (0.3) % and the “Te % (SEM) 4 h” value (human, 4 h, 40 µg/mL) was 35.2 (0.1) %.

In the case of `C=CC(C)(O)CCCC(C)CCCC(C)CCCC(C)C` (stereo not drawn) [Isophytol], the “Te % (SEM) 2 h” value is reported as 15.6 (1.0) % and the “Te % (SEM) 4 h” value is reported as 58.0 (1.7) %.

With `C[C@H]1[C@H](C)CC[C@]2(CO)CC[C@]3(C)C(=CC[C@@H]4[C@@]5(C)CC[C@H](O)C(C)(C)[C@@H]5CC[C@]43C)[C@H]12` (single isomer, unassigned) [Uvaol Isomer II, Uvaol] the “Te % (SEM) 2 h” value (human) was 17.7 (1.0) % and the “Te % (SEM) 4 h” value (human) was 38.3 (0.7) %.

With `C=CC(=C)CC/C=C(\C)CC/C=C(\C)C=O` [β-Sinensal] the “Te % (SEM) 2 h” value was 31.6 (1.2) % and the “Te % (SEM) 4 h” value was 38.2 (2.4) %.

`Cc1ccc(C(C)C)c(O)c1` [Thymol] was tested, and the “Te % (SEM) 2 h” value (human, 2 h, 40 µg/mL) was 34.1 (0.1) % and the “Te % (SEM) 4 h” value (human, 4 h, 40 µg/mL) was 47.0 (1.7) %.

Phytol was tested, and the “Te % (SEM) 2 h” value (human) was 15.6 (0.3) % and the “Te % (SEM) 4 h” value (human) was 43.5 (3.7) %.

Tocospiro A was tested, and the “Te % (SEM) 2 h” value was 2.7 (0.2) % and the “Te % (SEM) 4 h” value was 25.6 (1.5) %.

`C=C1/C=C/[C@H](C(C)C)CC/C(C)=C/CC1` [Germacrene D] was tested, and the “Te % (SEM) 2 h” value was 3.2 (0.2) % and the “Te % (SEM) 4 h” value was 6.6 (0.4) %.

In the case of `CCOC(=O)/C=C/c1ccc(O)c(O)c1` [Ethyl caffeate], the “Te % (SEM) 2 h” value is reported as 33.4 (2.4) % and the “Te % (SEM) 4 h” value is reported as 35.7 (0.3) %.

For `CC1(C)C[C@@H]2C3=CC[C@@H]4[C@@]5(C)CC[C@H](O)[C@@](C)(C=O)C5CC[C@@]4(C)[C@]3(C)CC[C@@]2(C(=O)O)C[C@@H]1O` (stereo partly drawn) [Lucyin A], the “Te % (SEM) 2 h” value [1] was 7.6 (0.5) % and the “Te % (SEM) 4 h” value [2] was 25.3 (0.7) %.

For Cymenol, the “Te % (SEM) 2 h” value was 51.5 (1.8) %.

In the case of `O=C(/C=C/c1ccc(O)c(O)c1)O[C@H](Cc1ccc(O)c(O)c1)C(=O)O` [Rosmarinic acid], the “Te % (SEM) 2 h” value (human) is reported as 41.0 (2.3) % and the “Te % (SEM) 4 h” value (human) is reported as 90.3 (4.2) %.

`C=CC(C)(O)CCC=C(C)CCC=C(C)C` (mixture of isomers) [Nerolidol] was tested, and the “Te % (SEM) 2 h” value (human) was 30.1 (2.5) % and the “Te % (SEM) 4 h” value (human) was 59.8 (2.4) %.

In the case of `CC1(C)CCCC2(C)OC(=O)C=C12` (stereo not drawn) [Dihydroactinidiolide], the “Te % (SEM) 2 h” value (human) is reported as 42.2 (3.5) % and the “Te % (SEM) 4 h” value (human) is reported as 51.8 (3.0) %.

`CC1(C)C[C@H](O)C[C@]2(C)OC(=O)C=C12` [Isololiolide] was tested, and the “Te % (SEM) 2 h” value was 33.0 (2.6) % and the “Te % (SEM) 4 h” value was 61.4 (4.3) %.

`CC(C)=CCC/C(C)=C/CC/C(C)=C/CC/C(C)=C/CO` [Geranylgeraniol] was tested, and the “Te % (SEM) 2 h” value was 30.2 (1.1) % and the “Te % (SEM) 4 h” value was 56.6 (3.1) %.

With `C=C(C)[C@H]1CC=C(C)CC1` [Limonene] the “Te % (SEM) 2 h” value was 33.6 (2.3) % and the “Te % (SEM) 4 h” value was 59.3 (2.9) %.

`COc1cc(C=O)cc(OC)c1O` [Syringaldehyde] was tested, and the “Te % (SEM) 2 h” value (human) was 22.7 (1.5)/33.4 (2.2) %, the “Te % (SEM) 4 h” value (human) was 45.7 (3.2)/42.0 (1.4) % and the “Te % (SEM) 2 h” value [1] was 22.7 (1.5)/33.4 (2.2) %. For the same compound, the “Te % (SEM) 4 h” value [2] was 45.7 (3.2)/42.0 (1.4) %.

`Cc1c(C)c2c(c(C)c1O)CC[C@@](C)(CCC[C@H](C)CCC[C@H](C)CCCC(C)C)O2` [α-Tocopherol] was tested, and the “Te % (SEM) 2 h” value (human, 2 h, 15 µg/mL) was 18.3 (0.8) %, the “Te % (SEM) 2 h” value (human, 2 h, 40 µg/mL) was 19.8 (0.2) % and the “Te % (SEM) 4 h” value (human, 4 h, 15 µg/mL) was 29.1 (1.5) %. The “Te % (SEM) 4 h” value (human, 4 h, 40 µg/mL) was 39.7 (3.0) %.

`CC(C)C1CCC2(C)C3CC=C(C=O)C2C13` (stereo not drawn) [Ylangenal] was tested, and the “Te % (SEM) 2 h” value was 32.0 (2.7) % and the “Te % (SEM) 4 h” value was 36.9 (0.4) %.

With `C=C[C@]1(C)CC[C@@H](C(C)(C)O)C[C@H]1C(=C)C` [Elemol] the “Te % (SEM) 2 h” value was 24.6 (0.5) % and the “Te % (SEM) 4 h” value was 25.4 (1.6) %.

With `O=C(O)c1ccc(O)cc1` [p-Salycilic acid] the “Te % (SEM) 2 h” value was 25.5 (1.8) % and the “Te % (SEM) 4 h” value was 43.4 (1.3) %.

`O=C(O)[C@]1(O)C[C@@H](O)[C@@H](O)[C@H](O)C1` [Quinic acid] was tested, and the “Te % (SEM) 2 h” value (human, 2 h, 30 µg/mL) was 20.1 (1.6) % and the “Te % (SEM) 4 h” value (human, 4 h, 30 µg/mL) was 52.5 (1.4) %.

With `CC1=CC[C@@H](C(C)(C)O)CC1` [L-α-Terpineol] the “Te % (SEM) 2 h” value was 17.6 (1.3) % and the “Te % (SEM) 4 h” value was 59.3 (0.4) %.

In the case of `Cc1cc(O)c(C)c2c1O[C@](C)(CCC[C@H](C)CCC[C@H](C)CCCC(C)C)CC2` [β-Tocopherol], the “Te % (SEM) 4 h” value is reported as 15.2 (0.8) %.
